MIC data for seven molecules are collected here from ChEMBL document CHEMBL1649484, “AbaR5, a large multiple-antibiotic resistance region found in Acinetobacter baumannii” (2009).

Converted amounts (≈) assume the structure as drawn.

Format in all cases: functional
Assay [1] deals with Acinetobacter baumannii. As to the kind of experiment: Antimicrobial activity against Acinetobacter baumannii 3208 expressing multiple-antibiotic resistance gene AbaR5 by […] 2 system.
Assay [2] relates to Acinetobacter baumannii. As to the kind of experiment: Antimicrobial activity against Acinetobacter baumannii 3208 expressing multiple-antibiotic resistance gene AbaR5 by […] 2 system in presence of beta-lactamase inhibitor clavulanic acid.
Assay [3] has as its system Acinetobacter baumannii. Put plainly: Antimicrobial activity against Acinetobacter baumannii 3208 expressing multiple-antibiotic resistance gene AbaR5 by […] 2 system in presence of beta-lactamase inhibitor Tazobactam.

As usually defined, the MIC is the lowest concentration found to suppress growth. On to GENTAMICIN, for which the MIC against Acinetobacter baumannii [1] is more than 16 µg/mL. Take `CC1(C)S[C@@H]2[C@H](NC(=O)[C@H](C(=O)O)c3ccsc3)C(=O)N2[C@H]1C(=O)O` [TICARCILLIN]: the MIC in the assay on Acinetobacter baumannii [2] amounted to 32 µg/mL. For the molecule `CO/N=C(\C(=O)N[C@@H]1C(=O)N2C(C(=O)[O-])=C(C[N+]3(C)CCCC3)CS[C@H]12)c1csc(N)n1` [CEFEPIME], the MIC with Acinetobacter baumannii [1] came to 16 µg/mL (≈ 33.3 µM). The molecule `NC[C@H]1O[C@H](O[C@H]2[C@H](O)[C@@H](O[C@H]3O[C@H](CO)[C@@H](O)[C@H](N)[C@H]3O)[C@H](N)C[C@@H]2N)[C@H](N)C[C@@H]1O` [TOBRAMYCIN] came in with an MIC against Acinetobacter baumannii [1] not above 1 µg/mL. Turning to `O=C(O)c1cn(C2CC2)c2cc(N3CCNCC3)c(F)cc2c1=O` [CIPROFLOXACIN], the MIC against Acinetobacter baumannii [1] is not below 4 µg/mL. For the molecule `C[C@@H](O)[C@H]1C(=O)N2C(C(=O)O)=C(S[C@@H]3CN[C@H](C(=O)N(C)C)C3)[C@H](C)[C@H]12` [MEROPENEM], in the assay on Acinetobacter baumannii [1], the lowest concentration to inhibit growth (MIC) was 0.5 µg/mL (≈ 1.3 µM). With `CCN1CCN(C(=O)N[C@@H](C(=O)N[C@@H]2C(=O)N3[C@@H]2SC(C)(C)[C@@H]3C(=O)O)c2ccccc2)C(=O)C1=O` [PIPERACILLIN], the MIC in the assay on Acinetobacter baumannii [3] was not above 4 µg/mL.
